Measurements published in a melting point compilation (Tetko et al.; mined from patent text by program, amines drawn as free bases though some values may be those of a salt).

SMILES | melting point [°C]
CC(C)(C)OC(=O)Nc1ccoc1C(N)=O | 140 to 143
Cc1c(C(=O)O)c[nH]c1C(=O)c1ccccc1 | 241 to 243
N[C@H]1CC[C@H](CN2CCC(=C3c4ccccc4Sc4ccc(Cl)cc43)CC2)CC1 | 128 to 135
CCOC(=O)c1[nH]ccc1OCC | 81 to 83
O=Cc1c(Br)nc(-c2ccccc2)n1Cc1cc2c(cc1Cl)OCO2 | 148
O=[N+]([O-])c1cccc(CN(CCO)CCO)c1 | 71 to 72
COc1ccc(-c2ccc(C(=O)Nc3ccc4cc(CN5CCCC5)cnc4c3)cc2)cc1 | 202 to 204
N#Cc1ccc(-c2cccc(OS(N)(=O)=O)c2)cc1Cn1cncn1 | 137 to 138
CC(C(N)=O)c1ccc2c(=O)c3ccccc3ccc2c1 (stereo not drawn) | 158 to 159
O=C(O)COc1ccc(C(=O)c2ccc(Cl)c(Cl)c2)c(Cl)c1Cl | 165 to 167
CC(=O)Nc1c([N+](=O)[O-])cc(Br)c2c1CCN(C(C)=O)C2 | 171
C=C(C)c1ccc(C2COc3c(C)c(C)c(NC(=O)CC(C)(C)C)c(C)c32)cc1OC (stereo not drawn) | 186 to 187
O=C(O)Cn1cccc(NC(=O)CCc2ccccc2)c1=O | 195 to 197
Oc1cccnc1Oc1cccc(Br)c1 | 107 to 108
CCc1ccc2oc3cc(C#N)cnc3c(=O)c2c1 | 183 to 185
CCCCC1(N(C)C)CC=C(c2[nH]c3ccccc3c2CCNC(=O)CC(C)(C)C)CC1 (stereo not drawn) | 139 to 142
CC1(C)OC(=O)C(c2ccc3sccc3c2)O1 (single isomer, unassigned; (-)) | 116 to 117
CCn1nc(OCCCc2ccc(OCCOC)cc2OCc2ccc(C(F)(F)F)cc2)cc1CCC(=O)O | 112 to 113
Cc1ccc(-c2cc(C(=O)O)nn2Cc2ccc(F)cc2)cc1C | 141
C=C(C)COc1ccc(Cl)cc1CN(CC)c1ccc(C(=O)O)nn1 | 130 to 131

SMILES | melting point [°C]
CC(=O)CC(=O)Nc1ccc(Br)cc1C | 109
CC(=O)C1Cc2c(nc3ccccc3c2C)C(N2CCOCC2)CN1 (stereo not drawn) | 179
CC1(C)OCc2c1nc1ccccc1c2Cl | 108 to 110
CCn1cc(C2(c3cccc(-c4cccnc4F)c3)N=C(N)N(C)C2=O)cc1COC (stereo not drawn) | 154 to 157
CC(C)c1cc(Oc2c(I)cc(CP(=O)(O)O)cc2I)ccc1O | > 220
Cc1cc(CSCCC(=C(N)NCCc2cccc(O)c2)[N+](=O)[O-])sc1CN(C)C | 114 to 115
COC(=O)C1(S(=O)(=O)N2CCC(c3ccc(Br)c(C)c3)CC2)CCOCC1 | 162 to 163
COc1ccnc(CCc2nc3cc(-c4ccc(N)cc4)cnc3[nH]2)c1 | 117 to 119
Cc1c(C)c2c(c(C)c1O)SC(CCCI)O2 (stereo not drawn) | 72 to 75
CC[C@H](C)[C@H](NC(=O)[C@@H]1CCCN1C(=O)OCc1ccccc1)C(=O)NCC(C)C | 87 to 88
COc1ccc([N+](=O)[O-])c(C2OCCO2)c1OC | 74 to 76
C=CCN(CC=C)Cc1noc(-c2ncn3c2[C@@H]2CCN2C(=O)c2c-3ccc(F)c2Cl)n1 | 127
NC(=O)c1ccc(-c2ccc3nnn(Cc4ccc5ncccc5c4)c3n2)cc1Cl | 212 to 215
CCCCCCOC(=O)C(O)C1OC(n2cnc3c(N)ncnc32)C(O)C1O (stereo not drawn) | 145 to 147
CC(C)c1nn(-c2ccc(C#N)nn2)cc1CCCO | 140 to 141
O=C(Nc1cccc(-n2ccnc2)c1)c1csc(-c2ccccc2)n1 | 131 to 134
CCCCc1nc2ccccn2c(=O)c1-c1ccc(NC[C@H]2CCCO2)cc1 | 155 to 170
CNC(NCCSCc1[nH]cnc1C)=C(C#N)C#N | 133 to 135
CC(C)C(=O)OC[C@@]1(N=[N+]=[N-])O[C@@H](n2ccc(N)nc2=O)[C@@H](OC(=O)C(C)C)[C@@H]1OC(=O)C(C)C | 167 to 169
CCCc1nc(-n2c(C)ccc2C)c(C(=O)OC)[nH]1 | 175 to 176

Other lines, results leading:

melting point [°C] | SMILES
233 to 235 | O=C1COc2c(cc(Cl)cc2C(=O)NC2CCN(CCc3ccccc3)CC2)N1
196 to 198 | O=C(Nc1ccc(C(F)(F)F)cc1)NC1CCOCC1
173 to 174 | Cc1c(CNCC2CCOCC2)n(C)c2c(C)c(NC(=O)c3ccc(OC[C@@H]4CCCO4)cc3)ccc12
84 to 86 | Cc1cnc2c(c1)CCCC2S(=O)(=O)c1ccccc1 (stereo not drawn)
105 | CCCCCCCc1cnc(-c2ccc(OC(=O)c3cc(N)c(O[C@H](C)CCCCCC)cc3[N+](=O)[O-])cc2)nc1
155 | CS(=O)c1ccc(-c2nn(Cc3cccnc3)c(=O)cc2-c2ccc(Cl)cc2)cc1 (stereo not drawn)
121 | NCc1cccc(N2C(=O)N(c3ccccc3Br)Cc3cnc(Nc4ccccc4)nc32)c1
155 to 156 | O=S1CSC(=C(c2ccc(F)cc2)c2ccc(F)cc2)SC1 (stereo not drawn)
79 to 80 | COc1ccc(OCc2ccc3ccccc3n2)cc1
140 to 143 | Cc1ccc(O[C@H]2CCN(C(=O)OCc3ccccc3)C[C@H]2O)cc1C (relative stereo)
128 to 130 | CS(=O)(=O)c1ccc(C(Cc2ccc(F)cc2)C(=O)Nc2nc3ccc(CO)cc3o2)cc1 (stereo not drawn)
200 to 208 | Cc1ccc2c(c1)c1c(n2Cc2ccccc2)CCCC1C(=O)O (stereo not drawn)
53 to 54.5 | COCCCCCC(=NO)c1ccc(Cl)c(Cl)c1
206 to 207 | COc1ccc(C(=O)Nc2cc(NC(=O)c3cccc(OCC(=O)O)c3)ccc2C)cc1OC
142 to 143 | COc1cnccc1NC(=O)Nc1ccc(N2CCN(C(=O)Nc3ccc(OCCO)cc3C(F)(F)F)CC2)cc1
287 to 289 | Cc1c(O)ccc2c(O)c(C(=O)Nc3cccc(F)c3)c(=O)oc12
190 to 191 | CC1(C)OC(c2cccc(S(C)(=O)=O)c2)=C(c2ccccc2)C1=O
181 to 183 | COc1ccc(-n2cnc3c(-c4ccc(C(F)(F)F)cc4F)ncnc32)cc1
159 to 162 | COc1cc(/C=C/C(=O)CC(=O)c2ccccc2)ccc1O
210 to 212 | O=C(O)CCc1ccc(CCNC(=S)Cc2ccccc2)cc1

melting point [°C] | SMILES
158 to 160 | Cc1c(CO)cc([N+](=O)[O-])c(Cl)c1[N+](=O)[O-]
112 | C=CCOC(=O)N1CCCC(OC)C1CC(=O)Cn1cnc2cc(Br)c(Cl)cc2c1=O (stereo not drawn)
249 to 250 | N#Cc1cccc(NC(=O)NC2N=C(CN3CCOCC3)c3ccccc3NC2=O)c1 (stereo not drawn)
> 260 | Cc1[nH]c(=O)c(-c2csc(-c3ccnc(NCc4ccccn4)c3)n2)cc1C(=O)NCc1ccccn1
77.5 to 78 | CC(C)Cc1cc(OCc2ccccc2)c2c(c1)OC(C)(C)CC2=O
231 to 232 | CCN1C(=O)CCCc2ccc(Nc3ncc(Br)c(Nc4c(F)cccc4C(=O)NC)n3)cc21
135 to 137 | CC(=O)OC(COc1ccc(C(=O)O)cc1)c1cc2cc(C(C)C)ccc2o1 (stereo not drawn)
144 to 145 | CC(C)n1nc(-c2sc(C(=O)NCCc3ccccn3)nc2-c2ccc(F)cc2)ccc1=O
98 to 100 | CSC(=NCCSCc1cc2ccc(CN(C)C)cc2o1)NC#N
138 to 139 | O=C(CCC(=O)N1CCC[C@H]1C(=O)O)c1ccc(Br)cc1
122 | CCOC(=O)C(=CN(C)C)C(=O)c1cc2cc(F)c(Cl)cc2nc1Cl
134 to 136 | CCOc1ccc(-c2nc(-c3cccc(C#N)n3)cs2)cc1OCC
109 to 111 | O=c1[nH]c(=O)n(C2CC(O)C(CO)O2)cc1C(Cl)=CI (stereo not drawn)
83 to 85 | COc1ccc2sc(Cc3ccc(Cl)cc3)nc2c1
48 | CCCCCCCCCCCCCCCCCCOC[C@@H](O)COC(=O)CCCCl
267 to 270 | O=[N+]([O-])c1ccc(-c2n[nH]c3c2Cc2ccccc2-3)cc1
141 to 142 | OCc1ccc(OCc2coc(-c3ccccc3)n2)cc1
128 to 130 | CCC(NC(C)=O)C(=O)O (stereo not drawn)
163 to 164 | CC(C(=O)NCCN(C)C)n1cc(-c2ccc(Oc3ccccc3)cc2)c2c(N)ncnc21 (stereo not drawn)
171 | Cn1cncc1C(c1ccc(Cl)cc1)c1ccc2c(c1)c(-c1nc(-c3ccccc3)cs1)cc(=O)n2C (stereo not drawn)

melting point [°C] | SMILES
188 to 189 | O=C(Oc1ccc(F)cc1)N1CCN2C(=O)OC(c3ccccc3)(c3ccccc3)C2C1 (stereo not drawn)
149 to 154 | COC(=O)NNS(=O)(=O)c1ccccc1
148 to 150 | COc1ccc(Cl)cc1C(=O)c1cc(C(F)(F)F)ccc1NC(=O)OC(C)(C)C
118 to 119 | Cc1ncccc1CC(=NC#N)NC(NC(=O)Cc1ccc(Cl)cc1)C(C)(C)C (stereo not drawn)
194 to 196 | N#CCNC(=O)C1(NC(=O)c2ccc(CBr)cc2)CCCCC1
149 to 150 | COc1ccc(-c2ccc(C(C)=O)cc2)cc1F
144 to 146 | CC(C)(C)OC(=O)NCOc1ccccc1C(=O)OCC#N
95 to 97 | CCOc1ccc(C=CC(C)=O)cc1OC
78 to 80 | CCN1C(=O)CCCc2cc(Nc3ncc(Cl)c(Nc4ccccc4OC)n3)c(OC)cc21
> 350 | O=C1NC(=O)c2c1c(O)nc1cc(Cl)ccc21
131 to 133 | CNC(=S)NCC1CC(c2ccc(Cl)cc2)=NO1 (stereo not drawn)
155 to 157 | O=C(O)COc1cccc2c(CC(O)CCC(c3ccccc3)c3ccccc3)coc12 (stereo not drawn)
181 to 183 | Cc1c(NC(=O)c2ccc(-c3ccc(Cl)cc3)cc2F)ccc2cc(CN3CCCC3)cnc12
128 to 130 | CC(C)(C)c1nc2cc(N3CCN(S(C)(=O)=O)CC3)c(N=C=S)cc2s1
233 to 235 | Cn1c(=O)c2c(N)ccnc2n(C)c1=O
79 to 83 | CC(C)(C)OC(=O)Nc1ccc(-c2ccc(OCc3ccccc3)nc2)cc1NC(=O)CC(=O)c1cccc(-n2ccnc2)c1
109 to 110 | COC(=O)C[C@H](O)CC(=O)C=Cc1c(-c2ccc(F)cc2)c(-c2ccc(F)cc2)c(C(=O)Nc2ccc(S(N)(=O)=O)cc2)n1C(C)C
145 to 150 | C#Cc1ccc(-c2ccc(Br)cc2)cc1
